{"source": "patent US7297700B2", "about": "“Bicycloheteroaryl compounds as P2X7 modulators and uses thereof” (Renovis, Inc., priority 2005, dated 2007)"}
{"tested_on": "IL-1β release from THP-1 cells", "assay": "IL-1β Release Assay (Alternate Method), THP-1 cells", "assay_type": "cell-based, human", "settings": "Homo sapiens; at 0.3 μM; THP-1 cells, BzATP-stimulated; read-out: IL-1β % inhibition", "procedure,_shortened": "(§1)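 IL-1β release, measured by ELISA, follows 45 min BzATP (250 uM final) stimulation of THP-1 cells given 30 min compound pretreatment. Cells were first primed 16 h with LPS and IFN-γ (100 ng/mL each), then 2 h with fresh LPS; inhibition expressed in percent after background correction.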", "units": {"inhibition at 0.3 µM": "%"}}
{"smiles": "O=C(CC12CC3CC(CC(C3)C1)C2)Nc1cccc2c1C=CN(Cc1ccc(F)cc1)C2", "note": "[Compound 636]", "inhibition at 0.3 µM": "0 to 25"}
{"tested_on": "IL-1β release from THP-1 cells", "assay": "IL-1β Release Assay (Alternate Method), THP-1 cells", "assay_type": "cell-based, human", "settings": "Homo sapiens; at 0.3 μM; THP-1 cells; read-out: IL-1β % inhibition", "procedure,_shortened": "as §1", "units": {"inhibition at 0.3 µM": "%"}}
{"smiles": "O=C(NCC12CC3CC(CC(C3)C1)C2)c1ncnc2c1CCN(Cc1ccccc1)C2", "note": "[Compound 17, 7-Benzyl-N-adamantylmethyl-5,6,7,8-tetrahydropyrido[3,4-d]pyrimidine-4-carboxamide]", "inhibition at 0.3 µM": "> 75"}
{"tested_on": "IL-1β release from THP-1 cells", "assay": "IL-1β Release Assay (Alternate Method), THP-1 cells", "assay_type": "cell-based, human", "settings": "at 0.3 μM; THP-1 cells", "procedure,_shortened": "as §1"}
{"smiles": "O=C(CC12CC3CC(CC(C3)C1)C2)Nc1ncnc2c1CCN(Cc1cc(C(F)(F)F)ccc1F)C2", "note": "[Compound 109]", "IL-1β % inhibition": "++ (compound exhibited 25-50% inhibition at 0.3 μM)"}
{"smiles": "CC(C)(C(=O)Nc1ncnc2c1CCN(Cc1ccccc1)C2)C12CC3CC(CC(C3)C1)C2", "note": "[Compound 339]", "IL-1β % inhibition": "+ (compound exhibited 0-25% inhibition at 0.3 μM)"}
{"smiles": "O=C(CC12CC3CC(CC(C3)C1)C2)Nc1ncnc2c1CCN(C(=O)c1ccc(F)c(F)c1)C2", "note": "[Compound 232]", "IL-1β % inhibition": "+++ (compound exhibited 50-75% inhibition at 0.3 μM)"}
{"smiles": "CC12CC3CC(C)(C1)CC(CC(=O)Nc1ncnc4c1CCN(Cc1ccc(F)cc1)C4)(C3)C2", "note": "[Compound 376]", "IL-1β % inhibition": "++ (compound exhibited 25-50% inhibition at 0.3 μM)"}
{"smiles": "O=C(CC12CC3CC(CC(C3)C1)C2)Nc1ncnc2c1CCN(Cc1ccccn1)C2", "note": "[Compound 61]", "IL-1β % inhibition": "+ (compound exhibited 0-25% inhibition at 0.3 μM)"}
{"smiles": "O=C(c1ccc(Cl)cc1)N1CCc2c(ncnc2NC(=O)C23CC4CC(CC(C4)C2)C3)C1", "note": "[Compound 399]", "IL-1β % inhibition": "+ (compound exhibited 0-25% inhibition at 0.3 μM)"}
{"smiles": "O=C(NCC1CCCCC1)c1ncnc2c1CCN(Cc1ccccn1)C2", "note": "[Compound 52]", "IL-1β % inhibition": "+ (compound exhibited 0-25% inhibition at 0.3 μM)"}
{"smiles": "CC(C)(C)CC(=O)N1CCc2c(ncnc2NC(=O)CC23CC4CC(CC(C4)C2)C3)C1", "note": "[Compound 262]", "IL-1β % inhibition": "+ (compound exhibited 0-25% inhibition at 0.3 μM)"}
{"smiles": "Cc1nc[nH]c1CN1CCc2c(ncnc2NC(=O)CC23CC4CC(CC(C4)C2)C3)C1", "note": "[Compound 81]", "IL-1β % inhibition": "+++ (compound exhibited 50-75% inhibition at 0.3 μM)"}
{"smiles": "O=C(CC12CC3CC(CC(C3)C1)C2)Nc1ncnc2c1CCN(Cc1ccc3cc[nH]c3c1)C2", "note": "[Compound 332]", "IL-1β % inhibition": "+++ (compound exhibited 50-75% inhibition at 0.3 μM)"}
{"smiles": "Cc1ccccc1CN1CCc2c(ncnc2NC(=O)C(C)(C)C23CC4CC(CC(C4)C2)C3)C1", "note": "[Compound 349]", "IL-1β % inhibition": "+ (compound exhibited 0-25% inhibition at 0.3 μM)"}
{"smiles": "O=C(CC12CC3CC(CC(C3)C1)C2)Nc1ncnc2c1CCN(S(=O)(=O)c1ccc3c(c1)OCCO3)C2", "note": "[Compound 200]", "IL-1β % inhibition": "+ (compound exhibited 0-25% inhibition at 0.3 μM)"}
{"smiles": "O=C(CC12CC3CC(CC(C3)C1)C2)Nc1ncnc2c1CCN(C(=O)c1ccc(C(F)(F)F)cc1F)C2", "note": "[Compound 266]", "IL-1β % inhibition": "+ (compound exhibited 0-25% inhibition at 0.3 μM)"}
{"smiles": "O=C(CC12CC3CC(CC(C3)C1)C2)Nc1ncnc2c1CCN(Cc1ccc(F)c(Cl)c1)C2", "note": "[Compound 323]", "IL-1β % inhibition": "+ (compound exhibited 0-25% inhibition at 0.3 μM)"}
{"smiles": "Cc1ccc(CN2CCc3c(ncnc3NC(=O)CC34CC5CC(CC(C5)C3)C4)C2)s1", "note": "[Compound 66]", "IL-1β % inhibition": "+ (compound exhibited 0-25% inhibition at 0.3 μM)"}
{"smiles": "O=C(CC1CCCCCC1)Nc1ncnc2c1CCNC2", "note": "[Compound 12]", "IL-1β % inhibition": "+ (compound exhibited 0-25% inhibition at 0.3 μM)"}
{"smiles": "O=C(CC12CC3CC(CC(C3)C1)C2)Nc1ncnc2c1CCN(C(=O)c1ccc3ccccc3c1)C2", "note": "[Compound 290]", "IL-1β % inhibition": "++++ (compound exhibited 75% or greater inhibition at 0.3 μM)"}
{"smiles": "NC(=O)COc1ccc(CN2CCc3c(ncnc3NC(=O)CC34CC5CC(CC(C5)C3)C4)C2)cc1", "note": "[Compound 91]", "IL-1β % inhibition": "+ (compound exhibited 0-25% inhibition at 0.3 μM)"}
{"smiles": "O=C(CC1CCCCCC1)Nc1ncnc2c1CCN(Cc1ccc(F)cc1)C2", "note": "[Compound 130]", "IL-1β % inhibition": "+ (compound exhibited 0-25% inhibition at 0.3 μM)"}
{"smiles": "Cc1nn(-c2ccccc2)nc1C(=O)N1CCc2c(ncnc2NC(=O)CC23CC4CC(CC(C4)C2)C3)C1", "note": "[Compound 273]", "IL-1β % inhibition": "++++ (compound exhibited 75% or greater inhibition at 0.3 μM)"}
{"smiles": "CCN1CCc2c(ncnc2NC(=O)CC2CCCCC2)C1", "note": "[Compound 20]", "IL-1β % inhibition": "+ (compound exhibited 0-25% inhibition at 0.3 μM)"}
{"smiles": "CC12CC3CC(C)(C1)CC(CC(=O)Nc1ncnc4c1CCN(C(=O)c1cc(F)ccc1F)C4)(C3)C2", "note": "[Compound 390]", "IL-1β % inhibition": "+ (compound exhibited 0-25% inhibition at 0.3 μM)"}
{"smiles": "CC(C)(C(=O)Nc1ncnc2c1CCN(C(=O)c1cc(F)ccc1F)C2)C12CC3CC(CC(C3)C1)C2", "note": "[Compound 363]", "IL-1β % inhibition": "+ (compound exhibited 0-25% inhibition at 0.3 μM)"}
{"smiles": "COc1ccc(Oc2ccc(S(=O)(=O)N3CCc4c(ncnc4NC(=O)CC45CC6CC(CC(C6)C4)C5)C3)cc2)cc1", "note": "[Compound 175]", "IL-1β % inhibition": "+++ (compound exhibited 50-75% inhibition at 0.3 μM)"}
{"smiles": "O=C(CC12CC3CC(CC(C3)C1)C2)Nc1ncnc2c1CCN(S(=O)(=O)Cc1ccc(C(F)(F)F)cc1)C2", "note": "[Compound 183]", "IL-1β % inhibition": "++ (compound exhibited 25-50% inhibition at 0.3 μM)"}
{"smiles": "O=C(CC12CC3CC(CC(C3)C1)C2)Nc1ncnc2c1CCN(C(=O)CCc1ccccc1)C2", "note": "[Compound 248]", "IL-1β % inhibition": "+ (compound exhibited 0-25% inhibition at 0.3 μM)"}
{"smiles": "CN(CCO)c1ccc(CN2CCc3c(ncnc3NC(=O)CC34CC5CC(CC(C5)C3)C4)C2)cc1", "note": "[Compound 89]", "IL-1β % inhibition": "+ (compound exhibited 0-25% inhibition at 0.3 μM)"}
{"smiles": "O=C(CC12CC3CC(CC(C3)C1)C2)Nc1ncnc2c1CCN(Cc1ccc(F)cc1C(F)(F)F)C2", "note": "[Compound 107]", "IL-1β % inhibition": "+ (compound exhibited 0-25% inhibition at 0.3 μM)"}
{"smiles": "O=C(CC12CC3CC(CC(C3)C1)C2)Nc1ncnc2c1CCN(C(=O)c1ccccc1Cl)C2", "note": "[Compound 294]", "IL-1β % inhibition": "+++ (compound exhibited 50-75% inhibition at 0.3 μM)"}
{"smiles": "Cc1c(C(=O)N2CCc3c(ncnc3NC(=O)CC34CC5CC(CC(C5)C3)C4)C2)cnn1-c1ccccc1", "note": "[Compound 288]", "IL-1β % inhibition": "+ (compound exhibited 0-25% inhibition at 0.3 μM)"}
{"smiles": "O=C(O)COc1ccccc1CN1CCc2c(ncnc2NC(=O)CC23CC4CC(CC(C4)C2)C3)C1", "note": "[Compound 141]", "IL-1β % inhibition": "+ (compound exhibited 0-25% inhibition at 0.3 μM)"}
{"smiles": "COc1cccc(CC(=O)N2CCc3c(ncnc3NC(=O)CC34CC5CC(CC(C5)C3)C4)C2)c1", "note": "[Compound 261]", "IL-1β % inhibition": "+ (compound exhibited 0-25% inhibition at 0.3 μM)"}
{"smiles": "COc1ccc(CC(=O)N2CCc3c(ncnc3NC(=O)CC34CC5CC(CC(C5)C3)C4)C2)cc1", "note": "[Compound 224]", "IL-1β % inhibition": "+ (compound exhibited 0-25% inhibition at 0.3 μM)"}
{"smiles": "COCCC(=O)N1CCc2c(ncnc2NC(=O)CC23CC4CC(CC(C4)C2)C3)C1", "note": "[Compound 307]", "IL-1β % inhibition": "++ (compound exhibited 25-50% inhibition at 0.3 μM)"}
{"smiles": "O=C(CC12CC3CC(CC(C3)C1)C2)Nc1ncnc2c1CCN(C(=O)c1ccnc(Cl)c1)C2", "note": "[Compound 298]", "IL-1β % inhibition": "++++ (compound exhibited 75% or greater inhibition at 0.3 μM)"}
{"tested_on": "IL-1β release from THP-1 cells", "assay": "IL-1β Release Assay (Alternate Method), THP-1 cells", "assay_type": "cell-based, human", "settings": "at 0.3 μM; THP-1 cells, BzATP-stimulated", "procedure,_shortened": "as §1"}
{"smiles": "CCCS(=O)(=O)N1CCc2c(ncnc2NC(=O)C23CC4CC(CC(C4)C2)C3)C1", "note": "[Compound 485]", "IL-1β % inhibition": "+ (compound exhibited 0-25% inhibition at 0.3 μM)"}
{"smiles": "O=C(Nc1ncnc2c1CCN(S(=O)(=O)c1c(F)cccc1F)C2)C12CC3CC(CC(C3)C1)C2", "note": "[Compound 540]", "IL-1β % inhibition": "+ (compound exhibited 0-25% inhibition at 0.3 μM)"}
{"smiles": "O=C(c1ccno1)N1CCc2c(ncnc2NC(=O)C23CC4CC(CC(C4)C2)C3)C1", "note": "[Compound 466]", "IL-1β % inhibition": "+ (compound exhibited 0-25% inhibition at 0.3 μM)"}
{"smiles": "O=C(Nc1ncnc2c1CCN(S(=O)(=O)c1ccc3ccccc3c1)C2)C12CC3CC(CC(C3)C1)C2", "note": "[Compound 483]", "IL-1β % inhibition": "+++ (compound exhibited 50-75% inhibition at 0.3 μM)"}
{"smiles": "O=C(C(c1ccccc1)c1ccccc1)N1CCc2c(ncnc2NC(=O)C23CC4CC(CC(C4)C2)C3)C1", "note": "[Compound 409]", "IL-1β % inhibition": "+ (compound exhibited 0-25% inhibition at 0.3 μM)"}
{"smiles": "O=C(COCc1ccccc1)N1CCc2c(ncnc2NC(=O)C23CC4CC(CC(C4)C2)C3)C1", "note": "[Compound 428]", "IL-1β % inhibition": "+ (compound exhibited 0-25% inhibition at 0.3 μM)"}
{"smiles": "COc1ccc(C)cc1S(=O)(=O)N1CCc2c(ncnc2NC(=O)C23CC4CC(CC(C4)C2)C3)C1", "note": "[Compound 548]", "IL-1β % inhibition": "+ (compound exhibited 0-25% inhibition at 0.3 μM)"}
{"smiles": "COc1ccc(C(=O)N2CCc3c(ncnc3NC(=O)C34CC5CC(CC(C5)C3)C4)C2)cc1", "note": "[Compound 407]", "IL-1β % inhibition": "+ (compound exhibited 0-25% inhibition at 0.3 μM)"}
{"smiles": "O=C(Cc1ccc(F)cc1)N1CCc2c(ncnc2NC(=O)C23CC4CC(CC(C4)C2)C3)C1", "note": "[Compound 413]", "IL-1β % inhibition": "++ (compound exhibited 25-50% inhibition at 0.3 μM)"}
{"smiles": "O=C(c1cccc(C(F)(F)F)c1)N1CCc2c(ncnc2NC(=O)C23CC4CC(CC(C4)C2)C3)C1", "note": "[Compound 406]", "IL-1β % inhibition": "++ (compound exhibited 25-50% inhibition at 0.3 μM)"}
{"smiles": "COc1cccc(CN2CCc3c(ncnc3NC(=O)C34CC5CC(CC(C5)C3)C4)C2)c1", "note": "[Compound 584]", "IL-1β % inhibition": "+ (compound exhibited 0-25% inhibition at 0.3 μM)"}
{"smiles": "O=C(c1cccnc1Oc1ccccc1)N1CCc2c(ncnc2NC(=O)C23CC4CC(CC(C4)C2)C3)C1", "note": "[Compound 446]", "IL-1β % inhibition": "++ (compound exhibited 25-50% inhibition at 0.3 μM)"}
{"smiles": "O=C(Nc1ncnc2c1CCN(S(=O)(=O)c1cccc(OC(F)(F)F)c1)C2)C12CC3CC(CC(C3)C1)C2", "note": "[Compound 497]", "IL-1β % inhibition": "+ (compound exhibited 0-25% inhibition at 0.3 μM)"}
{"smiles": "O=C(c1ccccc1Cl)N1CCc2c(ncnc2NC(=O)C23CC4CC(CC(C4)C2)C3)C1", "note": "[Compound 464]", "IL-1β % inhibition": "++ (compound exhibited 25-50% inhibition at 0.3 μM)"}
{"smiles": "O=C(Nc1ncnc2c1CCN(S(=O)(=O)c1ccccc1C(F)(F)F)C2)C12CC3CC(CC(C3)C1)C2", "note": "[Compound 528]", "IL-1β % inhibition": "++ (compound exhibited 25-50% inhibition at 0.3 μM)"}
{"smiles": "O=C(COc1ccc(Cl)cc1)N1CCc2c(ncnc2NC(=O)C23CC4CC(CC(C4)C2)C3)C1", "note": "[Compound 436]", "IL-1β % inhibition": "++ (compound exhibited 25-50% inhibition at 0.3 μM)"}
